Entries after “also recorded” stand apart in the source; their conditions may differ.
Key:
[1] = target: T1, recombinant Rv3378c protein (Mycobacterium tuberculosis, UniProt P9WJ61); experiment: Rv3378c enzymatic assays (tuberculosinyl transferase, HPLC-MS detection of 1-TbAd); type: biochemical, M. tuberculosis; conditions: pH 7.4
T1 construct: hexahistidine (His6) tag from pET-28b, thrombin-cleavable (N, cleaved yes); made in house; host or cells: E. coli BL21-CodonPlus, co-expressed with GroES/GroEL chaperones
T1 sequence (P9WJ61 1-296): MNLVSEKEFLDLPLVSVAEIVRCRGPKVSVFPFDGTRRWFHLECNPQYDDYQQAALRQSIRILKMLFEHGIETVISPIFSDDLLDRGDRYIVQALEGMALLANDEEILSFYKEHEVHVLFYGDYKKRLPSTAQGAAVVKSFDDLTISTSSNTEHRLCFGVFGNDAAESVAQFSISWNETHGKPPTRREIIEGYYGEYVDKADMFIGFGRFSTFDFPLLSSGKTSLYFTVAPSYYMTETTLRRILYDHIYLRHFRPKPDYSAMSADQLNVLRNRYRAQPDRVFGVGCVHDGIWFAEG

phagosomal acidification = conditions: synthetic tuberculosinols coupled to beads; reference (21); cited from earlier work

Compound	product formation by Rv3378c from diterpene pyrophosphate substrate and adenosine [1]	effect on phagosomal acidification (phagosomal acidification)
CC(C)=CCC/C(C)=C/CC/C(C)=C/CC/C(C)=C/COP(=O)(O)OP(=O)(O)O [GGPP, geranylgeranyl pyrophosphate]	little or no product; also recorded: does not act on GGPP	–
C/C(=C\CO)CC[C@@]1(C)[C@@H]2CCCC(C)(C)C2=CC[C@@H]1C [tuberculosinols, tuberculosinol]	–	block phagosomal acidification
tuberculosinyl pyrophosphate [TbPP]	catalyzed the condensation of adenosine and TbPP to generate 1-TbAd	–

Source: US10197560B2 (priority 2013, dated 2019)
